Source: PubChem BioAssay AID488814 (NMMLSC, 2010)

Tested on: S. cerevisiae RPL19A-GFP strain, flow cytometry GFP, 3 h
Assay: RPL19A-GFP expression changes in yeast, dose response, cell-based, cherry pick 3, SAR, flow cytometry GFP, multiplex (AID 488814)

| EC50 | Compound |
| --- | --- |
| 0.876 µM | Cc1ccc(NN2C(=O)C=C(c3ccccc3)C2=O)cc1 |
| 15.3 µM | CC1=NNC(=O)/C1=C\c1cn(-c2ccccc2)nc1-c1ccc(F)cc1 |
| 14.7 µM | Cc1ccc2c(Cl)cc(Cl)c(O)c2n1 |
